The structures appear in SMILES notation. Structures can show the parent of a compound that is named as a salt. Where two headings read alike, the source gives them in different places.

One assay deals with T1, CCK receptor (pancreas) (Rattus norvegicus, UniProt P30551).
T1 construct: The whole pancreas was dissected free of fat tissue and was homogenized; from tissue; host or cells: rat pancreas membranes (Sprague-Dawley)
T1 sequence (P30551 1-444): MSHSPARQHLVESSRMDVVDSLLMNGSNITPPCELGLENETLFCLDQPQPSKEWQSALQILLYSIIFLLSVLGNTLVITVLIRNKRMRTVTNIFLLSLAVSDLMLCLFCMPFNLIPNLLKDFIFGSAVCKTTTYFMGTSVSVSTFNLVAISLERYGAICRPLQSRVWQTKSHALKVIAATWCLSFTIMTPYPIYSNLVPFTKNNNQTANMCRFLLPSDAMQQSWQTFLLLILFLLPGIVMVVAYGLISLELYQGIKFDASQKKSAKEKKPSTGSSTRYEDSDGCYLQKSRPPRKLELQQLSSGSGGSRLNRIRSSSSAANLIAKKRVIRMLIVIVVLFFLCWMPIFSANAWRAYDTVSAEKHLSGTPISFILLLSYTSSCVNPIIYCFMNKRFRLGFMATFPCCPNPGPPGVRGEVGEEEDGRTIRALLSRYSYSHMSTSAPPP
The experiment in a line: CCK Receptor Binding (Pancreas): inhibition of ^125 I-CCK-33 binding. Particulars: rat pancreas membranes, ^125 I-CCK-33, 37° C., 30 minutes. Details: species or system Male Sprague-Dawley rats. The method, boiled down: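 Rat (male Sprague-Dawley) pancreatic membranes in 50 mM Tris HCl pH 7.7 with DTT, bacitracin, PMSF and o-phenanthroline; ^125I-Bolton Hunter-labelled CCK-33 as radioligand. Incubation 30 min at 37° C, separation by centrifugation, pellet gamma-counted; Scatchard analysis by diluting ^125I-CCK-33 with increasing CCK-33.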

In assay [1] the target is T2, CCK receptor (brain, cerebral cortex) (Cavia porcellus, UniProt H0VZC5).
T2 construct: Cerebral cortex was dissected and used as a receptor source; from tissue; host or cells: guinea pig cerebral cortex membranes (male Hartley)
T2 sequence (H0VZC5 1-426): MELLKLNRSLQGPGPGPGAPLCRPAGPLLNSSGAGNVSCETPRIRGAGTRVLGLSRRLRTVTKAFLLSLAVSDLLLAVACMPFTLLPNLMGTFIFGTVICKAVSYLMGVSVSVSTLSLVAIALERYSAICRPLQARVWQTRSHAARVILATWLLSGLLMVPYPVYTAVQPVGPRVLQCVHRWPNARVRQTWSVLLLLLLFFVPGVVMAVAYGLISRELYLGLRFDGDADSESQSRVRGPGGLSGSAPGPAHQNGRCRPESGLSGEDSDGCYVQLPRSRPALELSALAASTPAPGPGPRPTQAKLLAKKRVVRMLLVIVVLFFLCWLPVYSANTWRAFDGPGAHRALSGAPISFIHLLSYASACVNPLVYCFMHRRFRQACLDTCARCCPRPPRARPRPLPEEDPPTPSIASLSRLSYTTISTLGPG
The experiment in a line: biochemical. It is filed as binding, Male Hartley guinea pigs. Particulars: guinea pig cerebral cortex, ^125 I-CCK-33, 25° C., 2 hours. The method, boiled down:
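Guinea pig cerebral cortex homogenate as receptor source, with radiolabeled CCK-33 in HEPES buffer containing MgCl2, bacitracin, EGTA and 0.4% BSA. Incubation 2 h at 25°C; bound ligand pelleted by centrifugation and gamma-counted.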

Assay [2] has as its target T3, Gastrin receptor (gastric glands) (Cavia porcellus, UniProt H0VZC5).
T3 construct: The washed guinea pig gastric glands prepared as above were resuspended; from tissue; host or cells: guinea pig gastric mucosal glands (male Hartley)
T3 sequence (H0VZC5 1-426): T2 sequence (H0VZC5 1-426)
Nature of the assay: Gastrin Receptor Binding in Guinea Pig Gastric Glands. Conditions: 25° C., 30 minutes. On the set-up: species or system guinea pig (male Hartley).

Where [3] appears, read: read-out: IC50 ^125 I-CCK Pancreas.
[4] abbreviates: ^125 I-gastrin, read-out: IC50 ^125 I-Gastrin Gastric Glands.
The mark [5] stands for this setting: read-out: IC50 ^125 I-CCK Brain.
[6] abbreviates: IC50 ^125 I-Gastrin Gastric Glands.

As to `CN1C(=O)C(NC(=O)c2ccc(Br)cc2)N=C(c2ccccc2)c2ccccc21` (stereo not drawn) [Example 216, 4-Bromo-N-(2,3-dihydro-1-methyl-2-oxo-5-phenyl-1H-1,4-benzodiazepin-3-yl)-benzamide], the IC50 at CCK receptor (pancreas) (setting [3]) was found to be 1 nM; in assay [1] (IC50 ^125 I-CCK Brain) it was 2400 nM; in assay [2] (setting [4]), 1700 nM.

On to `CN1C(=O)C(NC(=O)Nc2ccc(Cl)cc2)N=C(c2ccccc2)c2ccccc21` (stereo not drawn) [Example 217], for which the IC50 at CCK receptor (pancreas) (setting [3]) is 51 nM; in assay [1] (IC50 ^125 I-CCK Brain), 23 nM; in assay [2] (setting [4]) it was 22 nM.

In the case of `CN1C(=O)[C@@H](NC(=O)c2ccc(C(F)(F)F)cc2)N=C(c2ccccc2F)c2ccccc21` [Example 219, (S)-N-(5-(2-Fluorophenyl)-2,3-dihydro-1-methyl-2-oxo-1H-1,4-benzodiazepin-3-yl)-4-(trifluoromethyl)-benzamide], the figures for the 50% inhibitory concentration (IC50) (on CCK receptor (pancreas) (IC50 ^125 I-CCK Pancreas); in assay [1] (IC50 ^125 I-CCK Brain); in assay [2] (setting [4])) were 0.5 nM, 1400 nM and 440 nM, respectively.

On to `O=C(CN1C(=O)C(NC(=O)Nc2ccc(Cl)cc2)N=C(c2ccccc2)c2ccccc21)NCc1ccccc1` (stereo not drawn) [Example 220], for which the IC50 is 2400 nM on CCK receptor (pancreas) (setting [3]), 100 nM in assay [1] (setting [5]) and 150 nM in assay [2] (setting [4]).

`CCN(CC)C(=O)CN1C(=O)C(NC(=O)Nc2ccc(Cl)cc2)N=C(c2ccccc2)c2ccccc21` (stereo not drawn) [Example 221, 3-((((4-Chlorophenyl)amino)carbonyl)amino)-N,N-diethyl-2,3-dihydro-2-oxo-5-phenyl-1H-1,4-benzodiazepine-1-acetamide]: the half-inhibitory concentration (IC50) at CCK receptor (pancreas) (setting [3]) came out at 400 nM; in assay [1] (setting [5]) it was 0.6 nM; in assay [2] (setting [4]), 2 nM.

For `CCN(CC)C(=O)CN1C(=O)C(NC(=O)OCc2ccccc2)N=C(c2ccccc2)c2ccccc21` (stereo not drawn) [Example 222], the results for the IC50 (on CCK receptor (pancreas) (IC50 ^125 I-CCK Pancreas); in assay [1] (setting [5]); in assay [2] (setting [4])) were 2200 nM, 150 nM and 230 nM, respectively.

Consider `CCCCCc1ccc(C(=O)NC2N=C(c3ccccc3F)c3ccccc3N(C)C2=O)cc1` (stereo not drawn) [Example 223, N-(5-(2-Fluorophenyl)-2,3-dihydro-1-methyl-2-oxo-1H-1,4-benzodiazepin-3-yl)-4-pentylbenzamide], for which the IC50 is 140 nM at CCK receptor (pancreas) (IC50 ^125 I-CCK Pancreas), more than 100000 nM in assay [1] (IC50 ^125 I-CCK Brain) and more than 100000 nM in assay [2] (setting [6]).

Consider `CCNC(=O)CN1C(=O)C(NC(=O)Nc2ccc(Cl)cc2)N=C(c2ccccc2)c2ccccc21` (stereo not drawn) [Example 224, 3-((((4-Chlorophenyl)amino)carbonyl)amino)-N-ethyl-2,3-dihydro-2-oxo-5-phenyl-1H-1,4-benzodiazepine-1-acetamide], for which the results for the IC50 (on CCK receptor (pancreas) (setting [3]); in assay [1] (setting [5]); in assay [2] (setting [4])) were 2100 nM, 11 nM and 25 nM, respectively.

For the compound `CN1C(=O)C(NC(=O)c2ccc(C(C)(C)C)cc2)N=C(c2ccccc2F)c2ccccc21` (stereo not drawn) [Example 226, 4-(1,1-Dimethylethyl)-N-(5-(2-fluorophenyl)-2,3-dihydro-1-methyl-2-oxo-1H-1,4-benzodiazepin-3-yl)-benzamide], the figures for the IC50 (on CCK receptor (pancreas) (IC50 ^125 I-CCK Pancreas); in assay [1] (setting [5]); in assay [2] (setting [4])) were less than 100 nM, 2300 nM and 6400 nM, respectively.

For the compound `CC(C)CC(N)C(=O)N1CC(CC2N=C(c3ccccc3)c3ccccc3NC2=O)c2ccccc21` (stereo not drawn) [Example 227, 1-(2-Amino-4-methyl-1-oxopentyl)-3-((2,3-dihydro-2-oxo-5-phenyl-1H-1,4-benzodiazepin-3-yl)methyl)-2,3-dihydro-1H-indole hydrochloride], the values for the half-maximal inhibitory concentration (IC50) (on CCK receptor (pancreas) (IC50 ^125 I-CCK Pancreas); in assay [1] (IC50 ^125 I-CCK Brain); in assay [2] (setting [6])) were 6600 nM, 50000 nM and more than 100000 nM, respectively.

For the compound `CCCCCc1ccc(C(=O)N[C@H]2N=C(c3ccccc3F)c3ccccc3N(C)C2=O)cc1` [Example 228, (S)-N-(5-(2-Fluorophenyl)-2,3-dihydro-1-methyl-2-oxo-1H-1,4-benzodiazepin-3-yl)-4-pentylbenzamide], the half-inhibitory concentration (IC50) at CCK receptor (pancreas) (IC50 ^125 I-CCK Pancreas) is 49 nM; in assay [1] (IC50 ^125 I-CCK Brain), 100000 nM; in assay [2] (setting [6]), 60000 nM.

`CCOC(=O)CCN1C(=O)C(NC(=O)OCc2ccccc2)N=C(c2ccccc2)c2ccccc21` (stereo not drawn) [Example 229, 2,3-Dihydro-2-oxo-5-phenyl-3-(((phenylmethoxy)carbonyl)amino)-1H-1,4-benzodiazepine-1-propanoic acid ethyl ester]: the IC50 on CCK receptor (pancreas) (IC50 ^125 I-CCK Pancreas) stood at 1200 nM; in assay [1] (setting [5]), 440 nM; in assay [2] (setting [4]) it was 260 nM.

Take `CCOC(=O)CCN1C(=O)C(NC(=O)Nc2ccc(Cl)cc2)N=C(c2ccccc2)c2ccccc21` (stereo not drawn) [Example 230, 3-((((4-Chlorophenyl)amino)carbonyl)amino)-2,3-dihydro-2-oxo-5-phenyl-1H-1,4-benzodiazepine-1-propanoic acid ethyl ester]: the IC50 is 490 nM on CCK receptor (pancreas) (setting [3]), 5.1 nM in assay [1] (IC50 ^125 I-CCK Brain) and 35 nM in assay [2] (setting [6]).

In the case of `CN1C(=O)C(NC(=O)[C@@H](Cc2ccccc2)NC(=O)OC(C)(C)C)N=C(c2ccccc2F)c2ccccc21` (stereo partly drawn) [Example 231, (2-((5-(2-Fluorophenyl)-2,3-dihydro-1-methyl-2-oxo-1H-1,4-benzodiazepin-3-yl)amino)-2-oxo-1-(phenylmethyl)ethyl)-carbamic acid 1,1-dimethylethyl ester], the values for the half-maximal inhibitory concentration (IC50) (on CCK receptor (pancreas) (IC50 ^125 I-CCK Pancreas); in assay [1] (setting [5]); in assay [2] (setting [4])) were 580 nM, 2700 nM and 2900 nM, respectively.

With `CN1C(=O)[C@@H](NC(=O)Nc2ccc(Cl)cc2)N=C(c2ccccc2)c2ccccc21` [Example 233], the half-inhibitory concentration (IC50) is 26 nM at CCK receptor (pancreas) (setting [3]), 410 nM in assay [1] (IC50 ^125 I-CCK Brain) and 580 nM in assay [2] (setting [4]).

Take `CN1C(=O)[C@H](NC(=O)Nc2ccc(Cl)cc2)N=C(c2ccccc2)c2ccccc21` [Example 234, (R)-N-(4-Chlorophenyl)-N'-(2,3-dihydro-1-methyl-2-oxo-5-phenyl-1H-1,4-benzodiazepin-3-yl)-Urea]: the values for the IC50 (at CCK receptor (pancreas) (setting [3]); in assay [1] (IC50 ^125 I-CCK Brain); in assay [2] (setting [4])) were 1100 nM, 5.5 nM and 12 nM, respectively.

Regarding `CN1CCN(C(=O)CN2C(=O)C(NC(=O)OCc3ccccc3)N=C(c3ccccc3)c3ccccc32)CC1` (stereo not drawn) [Example 235, (2,3-Dihydro-1-(2-(4-methyl-1-piperazinyl)-2-oxoethyl)-2-oxo-5-phenyl-1H-1,4-benzodiazepin-3-yl)-carbamic acid phenylmethyl ester], the values for the concentration for half-maximal inhibition (IC50) (at CCK receptor (pancreas) (IC50 ^125 I-CCK Pancreas); in assay [1] (setting [5]); in assay [2] (setting [4])) were 29000 nM, 1700 nM and 1400 nM, respectively.

Consider `O=C(Nc1ccc(Cl)cc1)NC1N=C(c2ccccc2)c2ccccc2N(CC(=O)N2CCCC2)C1=O` (stereo not drawn) [Example 236, 1-((3-((((4-Chlorophenyl)amino)carbonyl)amino)-2,3-dihydro-2-oxo-5-phenyl-1H-1,4-benzodiazepin-1-yl)acetyl)pyrrolidine], for which the results for the IC50 (at CCK receptor (pancreas) (setting [3]); in assay [1] (setting [5]); in assay [2] (setting [4])) were 520 nM, 0.28 nM and 0.5 nM, respectively.

With `CN1CCN(C(=O)CN2C(=O)C(NC(=O)Nc3ccc(Cl)cc3)N=C(c3ccccc3)c3ccccc32)CC1` (stereo not drawn) [Example 237, 1-((3-((((4-Chlorophenyl)amino)carbonyl)amino)-2,3-dihydro-2-oxo-5-phenyl-1H-1,4-benzodiazepin-1-yl)acetyl)-4-methylpiperazine], the IC50 at CCK receptor (pancreas) (setting [3]) came to 1200 nM; in assay [1] (setting [5]) it was 8 nM; in assay [2] (setting [4]) it was 2.6 nM.

With `CN1C(=O)C(NC(=O)c2ccsc2)N=C(c2ccccc2F)c2ccccc21` (stereo not drawn) [Example 238, N-(5-(2-Fluorophenyl)-2,3-dihydro-1-methyl-2-oxo-1H-1,4-benzodiazepin-3-yl)-3-thiophenecarboxamide], the half-maximal inhibitory concentration (IC50) stood at 28 nM on CCK receptor (pancreas) (setting [3]), 26000 nM in assay [1] (IC50 ^125 I-CCK Brain) and 11000 nM in assay [2] (setting [6]).

By IC50 is commonly meant the point on the concentration scale where inhibition reaches its midpoint.
